Test results from US9169254B2, “Spiroimidazolone derivative” (Chugai Seiyaku Kabushiki Kaisha, priority 2009, dated 2015).

Biological target: T1, human PTH1 receptor (Homo sapiens, UniProt Q03431)
T1 sequence (Q03431 27-593): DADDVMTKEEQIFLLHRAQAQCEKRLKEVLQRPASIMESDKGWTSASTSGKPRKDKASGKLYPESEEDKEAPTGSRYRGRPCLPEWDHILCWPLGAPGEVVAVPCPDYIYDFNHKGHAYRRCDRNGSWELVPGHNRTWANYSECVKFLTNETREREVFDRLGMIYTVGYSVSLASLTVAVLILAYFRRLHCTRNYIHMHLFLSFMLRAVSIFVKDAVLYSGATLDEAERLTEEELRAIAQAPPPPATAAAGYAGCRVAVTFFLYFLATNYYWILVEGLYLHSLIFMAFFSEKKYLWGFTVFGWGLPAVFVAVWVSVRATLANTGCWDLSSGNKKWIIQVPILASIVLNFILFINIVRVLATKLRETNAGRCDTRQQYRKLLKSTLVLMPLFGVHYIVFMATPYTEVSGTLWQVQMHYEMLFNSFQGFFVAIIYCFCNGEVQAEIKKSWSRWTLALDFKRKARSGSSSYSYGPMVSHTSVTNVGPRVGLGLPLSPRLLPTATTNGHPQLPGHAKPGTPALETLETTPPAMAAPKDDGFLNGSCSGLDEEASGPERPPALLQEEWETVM
Assay: In vitro cAMP signal activity in HKRK-B7 cells (LLC-PK1 cells overexpressing the human PTH1 receptor)
Type: cell-based
Details: HKRK-B7 cells; compound at 1×10^−3 M; cAMP produced as percentage of that produced by hPTH(1-34) at 100 nM

Row | SMILES | cAMP production activity (%)
1 | Cc1cc(N(C)C(N)=O)cc(C)c1CC(C)S(=O)(=O)N1CCC2(CC1)N=C(c1cccc(OC(F)(F)F)c1)NC2=O (stereo not drawn) [Compound 1090, 1-(3,5-Dimethyl-4-{2-[4-oxo-2-(3-trifluoromethoxy-phenyl)-1,3,8-triaza-spiro[4.5]dec-1-ene-8-sulfonyl]-propyl}-phenyl)-1-methyl-urea] | 118
2 | Cc1cc(CO)cc(C)c1/C=C/S(=O)(=O)N1CCC2(CC1)N=C(C1CCC(CCC(F)(F)F)CC1)NC2=O (stereo not drawn) [Compound 553, 8-[(E)-2-(4-hydroxymethyl-2,6-dimethyl-phenyl)-ethenesulfonyl]-2-[4-(3,3,3-trifluoro-propyl)-cyclohexyl]-1,3,8-triaza-spiro[4.5]dec-1-en-4-one] | 80
3 | CCOCCCCCCC1=NC2(CCN(S(=O)(=O)CCc3c(C)cc(N(C)C(N)=O)cc3C)CC2)C(=O)N1 [Compound 1344, 1-(4-{2-[2-(6-ethoxy-hexyl)-4-oxo-1,3,8-triaza-spiro[4.5]dec-1-ene-8-sulfonyl]-ethyl}-3,5-dimethyl-phenyl)-1-methyl-urea] | 94
4 | Cc1cc(CNC(N)=O)cc(C)c1CCS(=O)(=O)N1CCC2(CC1)N=C(C1CCC(C)CC1)NC2=O (stereo not drawn) [Compound 1314, (3,5-dimethyl-4-{2-[2-(4-methyl-cyclohexyl)-4-oxo-1,3,8-triaza-spiro[4.5]dec-1-ene-8-sulfonyl]-ethyl}-benzyl)-urea] | 78
5 | Cc1cc(N(C)C(=O)CN(C)C)cc(C)c1/C=C/S(=O)(=O)N1CCC2(CC1)N=C(c1cccc(OC(F)(F)F)c1)NC2=O [Compound 608, 2-dimethylamino-N-(3,5-dimethyl-4-{(E)-2-[4-oxo-2-(3-trifluoromethoxy-phenyl)-1,3,8-triaza-spiro[4.5]dec-1-ene-8-sulfonyl]-vinyl}-phenyl)-N-methyl-acetamide] | 20
6 | Cc1cc(C(=O)N2CCC(O)(CF)CC2)cc(C)c1/C=C/S(=O)(=O)N1CCC2(CC1)N=C(c1ccc(OCCCC(F)(F)F)c(C(F)(F)F)c1)NC2=O [Compound 1250, 8-{(E)-2-[4-(4-fluoromethyl-4-hydroxy-piperidine-1-carbonyl)-2,6-dimethyl-phenyl]-ethenesulfonyl}-2-[4-(4,4,4-trifluoro-butoxy)-3-trifluoromethyl-phenyl]-1,3,8-triaza-spiro[4.5]dec-1-en-4-one] | 67
7 | Cc1cc(C(=O)N(C)C)ccc1CCS(=O)(=O)N1CCC2(CC1)N=C(Cc1ccc(Cl)cc1Cl)NC2=O [Compound 134, 4-{2-[2-(2,4-dichloro-benzyl)-4-oxo-1,3,8-triaza-spiro[4.5]dec-1-ene-8-sulfonyl]-ethyl}-3,N,N-trimethyl-benzamide] | 77
8 | Cc1cc(N(C)C(N)=O)cc(C)c1CCS(=O)(=O)N1CCC2(CC1)N=C(C1CCC(CC(F)(F)C(F)(F)F)CC1)NC2=O (stereo not drawn) [Compound 1042, 1-[3,5-dimethyl-4-(2-{4-oxo-2-[4-(2,2,3,3,3-pentafluoro-propyl)-cyclohexyl]-1,3,8-triaza-spiro[4.5]dec-1-ene-8-sulfonyl}-ethyl)-phenyl]-1-methyl-urea] | 102
9 | Cc1cc(C(=O)N2CCC(C)(O)CC2)cc(C)c1/C=C/S(=O)(=O)N1CCC2(CC1)N=C(c1ccc(OCC(F)(F)C(F)(F)F)c(C(F)(F)F)c1)NC2=O [Compound 1203, 8-{(E)-2-[4-(4-hydroxy-4-methyl-piperidine-1-carbonyl)-2,6-dimethyl-phenyl]-ethenesulfonyl}-2-[4-(2,2,3,3,3-pentafluoro-propoxy)-3-trifluoromethyl-phenyl]-1,3,8-triaza-spiro[4.5]dec-1-en-4-one] | 90
10 | Cc1cc(N(C)C(N)=O)cc(C)c1/C=C/S(=O)(=O)N1CCC2(CC1)N=C(c1cccc(OC(F)(F)C(F)F)c1)NC2=O [Compound 1018, 1-[3,5-dimethyl-4-((E)-2-{4-oxo-2-[3-(1,1,2,2-tetrafluoro-ethoxy)-phenyl]-1,3,8-triaza-spiro[4.5]dec-1-ene-8-sulfonyl}-vinyl)-phenyl]-1-methyl-urea] | 109
11 | Cc1cc(N(CC#N)C(N)=O)ccc1CCS(=O)(=O)N1CCC2(CC1)N=C(c1cccc(OC(F)(F)F)c1)NC2=O [Compound 876, 1-cyanomethyl-1-(3-methyl-4-{2-[4-oxo-2-(3-trifluoromethoxy-phenyl)-1,3,8-triaza-spiro[4.5]dec-1-ene-8-sulfonyl]-ethyl}-phenyl)-urea] | 22
12 | Cc1cc(NC(=O)[C@@H](N)CO)ccc1/C=C/S(=O)(=O)N1CCC2(CC1)N=C(c1cccc(C(F)(F)F)c1)NC2=O [Compound 688, (S)-2-Amino-3-hydroxy-N-(3-methyl-4-{(E)-2-[4-oxo-2-(3-trifluoromethyl-phenyl)-1,3,8-triaza-spiro[4.5]dec-1-ene-8-sulfonyl]-vinyl}-phenyl)-propionamide] | 55
13 | O=C(NCCO)Nc1ccc(/C=C/S(=O)(=O)N2CCC3(CC2)N=C(C2CCCCC2)NC3=O)c(C(F)(F)F)c1 [Compound 198, 1-{4-[(E)-2-(2-cyclohexyl-4-oxo-1,3,8-triaza-spiro[4.5]dec-1-ene-8-sulfonyl)-vinyl]-3-trifluoromethyl-phenyl}-3-(2-hydroxy-ethyl)-urea] | 31
14 | Cc1cc(CN(C)C(N)=O)cc(C)c1CCS(=O)(=O)N1CCC2(CC1)N=C(C1CCC(CCC(F)(F)F)CC1)NC2=O (stereo not drawn) [Compound 1389, 1-[3,5-dimethyl-4-(2-{4-oxo-2-[4-(3,3,3-trifluoro-propyl)-cyclohexyl]-1,3,8-triaza-spiro[4.5]dec-1-ene-8-sulfonyl}-ethyl)-benzyl]-1-methyl-urea] | 67
15 | COc1cc(C2=NC3(CCN(S(=O)(=O)CCc4ccc(C(=O)N(C)C)cc4C)CC3)C(=O)N2)ccn1 [Compound 119, 4-{2-[2-(2-methoxy-pyridin-4-yl)-4-oxo-1,3,8-triaza-spiro[4.5]dec-1-ene-8-sulfonyl]-ethyl}-3,N,N-trimethyl-benzamide] | 60
16 | Cc1cc(S(=O)(=O)NCC(=O)N(C)C)ccc1/C=C/S(=O)(=O)N1CCC2(CC1)N=C(c1cccc(C(F)(F)F)c1)NC2=O [Compound 590, N,N-Dimethyl-2-(3-methyl-4-{(E)-2-[4-oxo-2-(3-trifluoromethyl-phenyl)-1,3,8-triaza-spiro[4.5]dec-1-ene-8-sulfonyl]-vinyl}-benzenesulfonylamino)-acetamide] | 70
17 | Cc1cc(C(=O)N2CC[C@@H](N(C)C)C2)cc(C)c1/C=C/S(=O)(=O)N1CCC2(CC1)N=C(c1cccc(OC(F)(F)F)c1)NC2=O [Compound 399, 8-{(E)-2-[4-((R)-3-dimethylamino-pyrrolidine-1-carbonyl)-2,6-dimethyl-phenyl]-ethenesulfonyl}-2-(3-trifluoromethoxy-phenyl)-1,3,8-triaza-spiro[4.5]dec-1-en-4-one] | 64
18 | Cc1cc(N(C)C(N)=O)cc(C)c1CCS(=O)(=O)N1CCC2(CC1)N=C(C1C3CCC1CC3)NC2=O (stereo not drawn) [Compound 1056, 1-{4-[2-(2-bicyclo[2.2.1]hept-7-yl-4-oxo-1,3,8-triaza-spiro[4.5]dec-1-ene-8-sulfonyl)-ethyl]-3,5-dimethyl-phenyl}-1-methyl-urea] | 94
19 | CN(C)CCNC(=O)Cc1ccc(CCS(=O)(=O)N2CCC3(CC2)N=C(C2CCCCC2)NC3=O)cc1 [Compound 282, 2-{4-[2-(2-cyclohexyl-4-oxo-1,3,8-triaza-spiro[4.5]dec-1-ene-8-sulfonyl)-ethyl]-phenyl}-N-(2-dimethylamino-ethyl)-acetamide] | 29
20 | Cc1cc(N(C)C(N)=O)cc(C)c1/C=C/S(=O)(=O)N1CCC2(CC1)N=C(c1ccc(F)c(C(F)(F)F)c1)NC2=O [Compound 1017, 1-(4-{(E)-2-[2-(4-Fluoro-3-trifluoromethyl-phenyl)-4-oxo-1,3,8-triaza-spiro[4.5]dec-1-ene-8-sulfonyl]-vinyl}-3,5-dimethyl-phenyl)-1-methyl-urea] | 101
21 | O=C1NC(CCCCCCCCC(F)(F)F)=NC12CCN(S(=O)(=O)/C=C/c1cccc3c1ccn3C[C@H](O)CO)CC2 [Compound 622, 8-{(E)-2-[1-((S)-2,3-Dihydroxy-propyl)-1H-indol-4-yl]-ethenesulfonyl}-2-(9,9,9-trifluoro-nonyl)-1,3,8-triaza-spiro[4.5]dec-1-en-4-one] | 134
22 | COc1cccc(CCS(=O)(=O)N2CCC3(CC2)N=C([C@H]2CC[C@H](C)CC2)NC3=O)c1C [Compound 668, 8-[2-(3-Methoxy-2-methyl-phenyl)-ethanesulfonyl]-2-(4-methyl-cyclohexyl)-1,3,8-triaza-spiro[4.5]dec-1-en-4-one] | 40
23 | CC(=O)Nc1ccc(CCS(=O)(=O)N2CCC3(CC2)N=C(c2cccc(Cl)c2Cl)NC3=O)c(C)c1 [Compound 147, N-(4-{2-[2-(2,3-dichloro-phenyl)-4-oxo-1,3,8-triaza-spiro[4.5]dec-1-ene-8-sulfonyl]-ethyl}-3-methyl-phenyl)-acetamide] | 105
24 | Cc1cc(N(C)C(N)=O)cc(C)c1/C=C/[S@TB3](=O)(=O)N1CCC2(CC1)N=C(CCCCCCC/C=C/c1ccccc1)NC2=O [Compound 1121, 1-(3,5-dimethyl-4-{(E)-2-[4-oxo-2-((E)-9-phenyl-non-8-enyl)-1,3,8-triaza-spiro[4.5]dec-1-ene-8-sulfonyl]-vinyl}-phenyl)-1-methyl-urea] | 118
